Laboratory results reported in patent US9102636B2, “Analgesic compounds, compositions, and uses thereof” (Galleon Pharmaceuticals, Inc., priority 2010, dated 2015).
pIC50: −log10 of the molar value. Where “and” joins values, the source holds several entries; their conditions need not be identical. Identical values can stand only once. Entries after “also recorded” stand apart in the source; their conditions may differ.

Tests used:
[1] = L-012 assay: inhibition of SIN-1 generated peroxynitrite induced luminescence/fluorescence of L-012; type: biochemical; settings: 15 minute time point; average of three plates
Procedure: Luminol like compound “L-012” is a chemilumescent probe that is activated by the presence of a ROS and/or RNS such as peroxynitrite. In this assay L-012 was oxidized by the addition of 3-Morpholino-sydnonimine (“SIN-1”), a known peroxynitrite generator. The emitted fluorescence was directly proportional to the concentration of SIN-1. The compounds of the invention were then assessed for their ability to scavenge peroxynitrite by blocking the increase of peroxynitrite induced fluorescence. Concentrations of compound producing 50% inhibition of the fluorescence signal (IC50 values) were calculated by testing the compounds of the invention at various concentrations and averaging the IC50 of three plates.
The following solutions were added to white polystyrene, non-sterile 96-well plate (Costar #3912): 196 μL of 50 μM L-012; 2 μL of the test compound; and 24 μL of 500 mM SIN-1. Fresh stock of 50 μM L-012 in PBS pH 7.4 was made for each 96 well plate that was analyzed. The plates were read in a FlexStation3 (Molecular Devices) using the luminescent mode at 37° C. for 30 min, with a measurement every 30 seconds and an integration time of 100 msec.
Luminescence signal was recorded by the FlexStation3 kinetically at 37° C. for 30 minutes, with a measurement every 30 seconds and an integration time of 100 msec. The data in rows A and H were dropped from each plate to exclude the possibility of an ‘edge effect’. Thus, each test compound had 3 replicates per plate.

FCA induced edema = FCA induced edema (paw volume); type: in vivo, rat
Procedure: (§1) Compound 2 was evaluated in the rat Freund's complete adjuvant (FCA) model of inflammatory pain. The rat Freund's complete adjuvant (FCA) intraplantar model of inflammatory pain produces behaviors similar to those observed in patients and has been widely used to assess novel pharmacological treatments (Lam et al., 2008, J Ethnopharmacol. 120:44-50). The positive control was celecoxib (TRC, Montreal), and the negative control was vehicle (0.5% methyl cellulose, in phosphate buffered saline). […] The Hargreaves apparatus was obtained from Ugo Basile, Italy. The Freund's complete adjuvant was obtained from Sigma, St. Louis, and the electronic von frey was obtained from Stoelting, Ill. For this assay, paw withdrawal latency to a thermal stimulus was assessed using a radiant heat source (Ugo Basile, Italy) aimed at the plantar surface of the left hind paw (Hargreaves test; […] Paw withdrawal thresholds to a non-noxious tactile stimulus was assessed using an electronic von Frey apparatus that presented an increasing mechanical force to the plantar surface of the hind paw. Paw volume was measured by displacement of water and assuming a tissue density equal to that of water. […] Celecoxib (30 mg/kg p.o.) served as the positive control. […] After induction of anesthesia, the injection site was prepared in a sterile manner and 100 μl of a 50% suspension of FCA injected. After injection, animals were weighed and allowed to recover before being returned to their home cages. Statistical significance was determined on untransformed data using a two-way analysis of variance (Graphpad Prism, NC). Significant main effects were analyzed further by subsequent Bonferronni post-hoc test. The level of significance was set at p<0.05. Data are shown as mean±S.E.M. (with an asterisk to denote significance as compared to vehicle treated controls).

[2] = test system: FCA induced tactile allodynia; test: FCA induced tactile allodynia (electronic von Frey); type: in vivo, rat
Procedure: as §1

[3] = test system: spinal nerve ligation induced tactile allodynia; test: Spinal nerve ligation (SNL, Chung model) induced tactile allodynia (von Frey filaments); type: in vivo, rat; settings: for Paw withdrawal threshold: FIG. 24, fasted; for Paw withdrawal threshold / Paw threshold: individual animals; for Paw threshold: FIG. 25, gabapentin (positive control, 100 mg/kg i.p.)
ataxia (rotarod) = test: Accelerating rotarod assay of ataxia (latency to fall); type: in vivo, rat; settings: for Latency to fall: Haloperidol 3 mg/kg p.o., maximum 300 seconds, individual animals
Procedure: Compound 2 was evaluated in a rat accelerating rotarod model of ataxia. Ataxia is a common clinical problem with CNS-active compounds and can often confound interpretation of efficacy in preclinical pain models. The rotarod assay of ataxia has been widely used to assess the side-effect liability of novel pharmacological treatments (Jones & Roberts, 1968, J. Pharm. […] The positive control was haloperidol (Sigma, St. […] Male Sprague-Dawley Rats (Harlan, Ill.) were 250-300 g at time of dosing. Rotarod was obtained from IITC, CA. To examine the potential effects of Compound 2 on motor performance, rats were tested on an accelerating rotarod (IITC, Ca). […] Rats received two timed training trials (averaged to give the reported baseline) on the first day, then 24 hr later rats were administered Compound 2 (30, 100 and 300 mg/kg, p.o.), haloperidol (3 mg/kg, p.o.), the positive control, or vehicle. […] Statistical significance was determined on untransformed data using a two-way analysis of variance (Graphpad Prism, NC). Significant main effects were analyzed further by subsequent Bonferronni post-hoc test. The level of significance was set at p<0.05. Data are shown as mean±S.E.M. (with an asterisk to denote significance as compared to vehicle treated controls).

Question: With CC1(C)SC(Nc2ccccc2O)=N[C@H]1C(=O)O [Compound 1, (S)-2-(2-hydroxyphenylamino)-thiazoline-5,5-dimethyl-4-carboxylic acid] as the molecule, how does the pIC50 [1] read?
Answer: The pIC50 was 6.57.

Question: With COC(=O)[C@@H]1N=C(Nc2cc(Cl)ccc2O)SC1(C)C [Compound 20, (S)-2-(2-Hydroxy-5-chlorophenylamino)-thiazoline-5,5-dimethyl-4-carboxylic acid methyl ester] as the molecule, how does the pIC50 [1] read?
Answer: Its pIC50 is 6.26.

Question: With CC1(C)SC(Nc2cc(Cl)ccc2O)=N[C@H]1C(=O)O [Compound 21, (S)-2-(2-Hydroxy-5-chlorophenylamino)-thiazoline-5,5-dimethyl-4-carboxylic acid] as the molecule, how does the pIC50 [1] read?
Answer: Its pIC50 is 6.59.

Question: With Cc1ccc(O)c(NC2=N[C@@H](C(=O)O)C(C)(C)S2)c1 [Compound 24, (S)-2-(2-Hydroxy-5-methylphenylamino)-thiazoline-5,5-dimethyl-4-carboxylic acid] as the molecule, how does the pIC50 [1] read?
Answer: Its pIC50 is 6.27.

Question: With COc1ccc(NC2=N[C@@H](C(=O)O)C(C)(C)S2)c(O)c1 [Compound 26, (S)-2-(2-Hydroxy-4-methoxyphenylamino)-thiazoline-5,5-dimethyl-4-carboxylic acid] as the molecule, how does the pIC50 [1] read?
Answer: The pIC50 was 6.85.

Question: With COC(=O)[C@@H]1N=C(Nc2ccc(OC)cc2O)SC1(C)C [Compound 27, (S)-2-(2-Hydroxy-4-methoxyphenylamino)-thiazoline-5,5-dimethyl-4-carboxylic acid methyl ester] as the molecule, how does the pIC50 [1] read?
Answer: Its pIC50 is 6.52.

Question: For Cc1ccc(-c2cc(C(F)(F)F)nn2-c2ccc(S(N)(=O)=O)cc2)cc1 [celecoxib, reference compound], which “Paw volume” value (FCA induced edema; 24 hrs post, Celecoxib (30 mg/kg p.o.), FIG. 20A) is on record?
Answer: The value was 2.8 mL and 3.1 mL and 2.7 mL and 3 mL and 2.2 mL.

Question: What about the “Paw volume” value (FCA induced edema; 48 hrs post, Celecoxib (30 mg/kg p.o.), FIG. 20A) of the same molecule?
Answer: The value was 2.7 mL and 2.8 mL and 2.2 mL.

Question: And the “Paw volume” value (FCA induced edema; FCA/celecoxib, 30 mg/kg p.o., 1 hr (D2), individual animals, 30 mg/kg)?
Answer: The value was 2.3 mL (2×) and 2.6 mL and 2.4 mL (2×) and 2.7 mL (2×) and 2.5 mL.

Question: What about the “Paw volume” value (FCA induced edema; FCA/celecoxib, 30 mg/kg p.o., 1 hr, individual animals, 30 mg/kg) of the same molecule?
Answer: Its value is 2.7 mL (3×) and 2.9 mL and 2.6 mL and 3.1 mL and 3 mL (2×).

Question: And the “Paw volume” value (FCA induced edema; FCA/celecoxib, 30 mg/kg p.o., 3 hrs (D2), individual animals, 30 mg/kg)?
Answer: Its value is 2.4 mL and 2.5 mL (2×) and 2.3 mL (2×) and 2.7 mL and 2.6 mL and 2.8 mL.

Question: What about the “Paw volume” value (FCA induced edema; FCA/celecoxib, 30 mg/kg p.o., 3 hrs, individual animals, 30 mg/kg) of the same molecule?
Answer: The value was 2.7 mL (3×) and 2.9 mL (2×) and 2.8 mL and 3.1 mL and 2.6 mL.

Question: What about the “Paw volume” value (FCA induced edema; FCA/celecoxib, 30 mg/kg p.o., Pre-Drug (D2), individual animals, 30 mg/kg) of the same molecule?
Answer: The value was 2.4 mL and 2.6 mL (2×) and 2.3 mL (2×) and 2.5 mL and 2.7 mL and 2.8 mL.

Question: And the “Paw volume” value (FCA induced edema; FCA/celecoxib, 30 mg/kg p.o., Pre-Drug, individual animals, 30 mg/kg)?
Answer: The value was 2.8 mL (3×) and 3.1 mL (2×) and 2.9 mL and 3 mL and 3.2 mL.

Question: What about the “Paw volume” value (FCA induced edema; FCA/celecoxib, 30 mg/kg p.o., Pre-FCA (baseline), individual animals, 30 mg/kg) of the same molecule?
Answer: The value was 1.7 mL (6×) and 1.8 mL and 1.9 mL.

Question: And the “Paw volume” value (FCA induced edema; Pre-FCA, Celecoxib (30 mg/kg p.o.) group, individual rats, FIG. 20A)?
Answer: The value was 1.8 mL and 1.9 mL (2×) and 1.7 mL (2×) and 1.5 mL.

Question: And the “Paw withdrawl threshold” value ([2]; 60 (min post-dose), celecoxib 30 mg/kg p.o. 24 hours post-FCA)?
Answer: Its value is 29.9 g and 32.4 g and 19.8 g and 23.2 g and 30.9 g.

Question: And the “Paw withdrawl threshold” value ([2]; baseline (pre-FCA), celecoxib 30 mg/kg group, individual rats)?
Answer: The value was 31.8 g (2×) and 39.4 g and 25.93 g and 36.6 g and 37.73 g.

Question: Which “Paw withdrawal threshold” value ([3]; gabapentin 100 mg/kg i.p., 3 hrs (D1)) does the source give for NCC1(CC(=O)O)CCCCC1 [gabapentin, reference compound] here?
Answer: The value was 15 g (4×) and 5.18 g and 3.67 g and 6.58 g and 5.56 g.

Question: What about the “Paw withdrawal threshold” value ([3]; gabapentin 100 mg/kg i.p., 3 hrs (D3)) of the same molecule?
Answer: The value was 15 g (3×) and 3.33 g and 11.69 g and 8.61 g and 6.58 g and 9.86 g.

Question: And the “Paw withdrawal threshold” value ([3]; gabapentin 100 mg/kg i.p., 5 hrs (D1))?
Answer: Its value is 10.31 g and 5.56 g and 6.58 g (2×) and 1.99 g and 6.66 g and 7.94 g and 6.4 g.

Question: And the “Paw withdrawal threshold” value ([3]; gabapentin 100 mg/kg i.p., 5 hrs (D3))?
Answer: Its value is 15 g (2×) and 4.4 g and 4.72 g and 2.37 g and 6.58 g and 7.31 g and 6.66 g.

Question: What about the “Paw withdrawal threshold” value ([3]; gabapentin 100 mg/kg i.p., Pre-Drug (D1)) of the same molecule?
Answer: Its value is 6.64 g and 1.65 g and 1.33 g and 1.56 g and 2.81 g (2×) and 4.23 g and 5.04 g.

Question: What about the “Paw withdrawal threshold” value ([3]; gabapentin 100 mg/kg i.p., Pre-Drug (D3)) of the same molecule?
Answer: Its value is 6.64 g and 1.56 g and 1.4 g and 1.65 g and 5.57 g and 3.55 g and 3.58 g and 2.81 g.

Question: And the “Paw withdrawal threshold” value ([3]; gabapentin 100 mg/kg i.p., Pre-Sx)?
Answer: Its value is 15 g.

Question: And the “Paw threshold” value ([3]; 1 wk, 100 mg/kg)?
Answer: The value was 1.56 g (2×) and 6.58 g (2×) and 3.73 g and 2.2 g and 4.25 g and 1.4 g.

Question: What about the “Paw threshold” value ([3]; 2 wks, 100 mg/kg) of the same molecule?
Answer: Its value is 0.99 g and 1.31 g and 3.13 g and 1.4 g (2×) and 2.81 g (3×).

Question: What about the “Paw threshold” value ([3]; Pre-Sx) of the same molecule?
Answer: Its value is 15 g.

Question: What about the “reversal of SNL tactile allodynia, positive control” value ([3]; rat, gabapentin 100 mg/kg i.p., 3 and 5 hours after each administration) of the same molecule?
Answer: The value was “consistently produced a statistically significant reversal of allodynia; also recorded: statistically significant reversal of hyperalgesia”.

Question: What about the “development of SNL tactile allodynia, positive control dosed only on day of surgery” value ([3]; rat, gabapentin, FIG. 25) of the same molecule?
Answer: Its value is “failed to alter the course of development of allodynia”.

Question: With O=C(CCCN1CCC(O)(c2ccc(Cl)cc2)CC1)c1ccc(F)cc1 [haloperidol, reference compound] as the molecule, how does the “Latency to fall” value (ataxia (rotarod); Baseline) read?
Answer: The value was 60 s and 38 s and 42.5 s and 59 s and 68 s and 48 s and 86 s and 62 s and 71 s and 80 s and 57 s.

Question: What about the “Latency to fall” value (ataxia (rotarod); Post-Drug (1 hr)) of the same molecule?
Answer: The value was 9 sec and 10 sec (2×) and 7 sec and 2 sec (2×) and 5 sec (2×) and 6 sec and 30 sec and 15 sec.

Question: What about the “latency to fall, accelerating rotarod, positive control” value (ataxia (rotarod); rat, haloperidol 3 mg/kg p.o., 1 h post-administration) of the same molecule?
Answer: The value was “significant motor deficits; also recorded: substantial reduction in latency”.
